For one data set, the system named is pancreatin. The experiment in a line: Pancreatin stability. The note with it: gabapentin (2) released by 1% (w/v) pancreatin; prodrug 5 μM; pH 7.5; 37° C.; 60 min. It is filed as in vitro ADME, porcine. How it is done:
Pancreatin Stability: Stability studies were conducted by incubating prodrug (5 μM) with 1% (w/v) pancreatin (Sigma, P-1625, from porcine pancreas) in 0.025 M Tris buffer containing 0.5 M NaCl (pH 7.5) at 37° C. for 60 min. The reaction was stopped by addition of 2 volumes of methanol. After centrifugation at 14,000 rpm for 10 min, the supernatant was removed and analyzed by LC/MS/MS.

The target in the next data set is T1, LBAT (Homo sapiens, UniProt Q14973).
T1 construct: expressed in transfected cells; host or cells: CHO cells
The experiment in a line: Inhibition of radiolabeled taurocholate uptake in LBAT-transfected CHO cells. It counts as cell-based. Conditions: radiolabeled competition assay in transporter-expressing CHO cells. The procedure:
(§1) CHO cells transfected with either the IBAT or LBAT transporter were seeded into 96-well microtiter plates at 100,000 cells/well in 100 μL DMEM containing 10% serum, glutamine and Penstrep. After overnight incubation the media was removed and test compound (25 μL) added at 2× the final desired concentration. Tritiated taurocholate (50,000 CPM/well) was diluted with cold substrate to a final concentration of 5 μM and 25 μL/well of this mixture was added to the plate. After incubating for 1 h at room temperature the solution was removed and the plate washed 4× with PBS at 4° C. 200 μL/well of scintillant is added and the plate then read in a Wallac microbeta counter. The inhibition data is processed by standard methods to calculate an inhibition constant Ki for the test compound.

Data set [1] has as its target T2, IBAT (Homo sapiens, UniProt Q12908). Kind of data set: Electrogenic transport in Xenopus oocytes expressing IBAT. Conditions: relative to glycodeoxycholate. It counts as cell-based. The source says:
RNA preparation: Human IBAT and LBAT Transporter cDNAs were subcloned into a modified pGEM plasmid that contains 5′ and 3′ untranslated sequences from the Xenopus β-actin gene. These sequences increase RNA stability and protein expression. Plasmid cDNA was linearized and used as template for in vitro transcription (Epicentre Technologies transcription kit, 4:1 methylated:non-methylated GTP).
Xenopus oocyte isolation. Xenopus laevis frogs were anesthetized by immersion in Tricaine ([…] in deionized water) for 15 min. Oocytes were removed and digested in frog ringer solution (90 mM NaCl, 2 mM KCl, 1 mM MgCl2, 10 mM NaHEPES, pH 7.45, no CaCl2) with 1 mg/mL collagenase (Worthington Type 3) for 80-100 min with shaking. The oocytes were washed 6 times, and the buffer changed to frog ringer solution containing CaCl2 (1.8 mM). Remaining follicle cells were removed if necessary. Cells were incubated at 16° C., and each oocyte injected with […] RNA in […] solution.
Electrophysiology measurements. Transport currents were measured 2-14 days after injection, using a standard two-electrode electrophysiology set-up (Geneclamp 500 amplifier, Digidata 1320/PCLAMP software and ADInstruments hardware and software were used for signal acquisition). Electrodes ([…]) were microfabricated using a Sutter Instrument puller and filled with 3M KCl. The bath was directly grounded (transporter currents were less than 0.3 μA). Bath flow was controlled by an automated perfusion system (ALA Scientific Instruments, solenoid valves).
For transporter pharmacology, oocytes were clamped at −60 to −90 mV, and continuous current measurements acquired using PowerLab Software and an ADInstruments digitizer. Current signals were lowpass filtered at 20 Hz and acquired at 4-8 Hz. All bath and drug-containing solutions were frog ringers solution containing CaCl2. Drugs were applied for 10-30 seconds until the induced current reached a new steady-state level, followed by a control solution until baseline currents returned to levels that preceded drug application. The difference current (baseline subtracted from peak current during drug application) reflected the net movement of charge resulting from electrogenic transport and was directly proportional to tranport rate. Recordings were made from a single oocyte for up to 60 min, enabling 30-40 separate compounds to be tested per oocyte. […]. Using this normalization procedure Vmax (i.e. maximal induced current) for different compounds tested on different oocytes could be compared.

The target of data set [2] is T2, IBAT. Kind of data set: Inhibition of radiolabeled taurocholate uptake in IBAT-transfected CHO cells. The arrangement: expressed in transfected cells; host or cells: CHO cells. The note with it: radiolabeled competition assay in transporter-expressing CHO cells. It is filed as cell-based. How it is done: as §1
Data set [3] in a line: Pharmacokinetics of N-phthaloylglycine prodrug (61) in rats (Example 42). It counts as in vivo, rat. The note with it: oral (61) 240 mg/kg, post dosing. The procedure: The pharmacokinetics of the N-phthaloylglycine prodrug (61) is examined in rats. […] Serial blood samples are obtained over 24 hours following dosing and blood is processed for plasma by centrifugation. Plasma samples are stored at −80° C. until analyzed. Concentrations of N-phthaloylglycine or (61) in plasma samples are determined by LC/MS/MS.

The nature of data set [4]: Caco-2 homogenate S9 stability. Conditions: substrate 5.0 μM, no cofactors, 37° C. It is filed as in vitro ADME. How it is done: Caco-2 Homogenate S9 Stability. Caco-2 cells were grown for 21 days prior to harvesting. Culture medium was removed and cell monolayers were rinsed and scraped off into ice-cold 10 mM sodium phosphate/0.15 M potassium chloride, pH 7.4. Cells were lysed by sonication at 4° C. using a probe sonicator. Lysed cells were then transferred into 1.5 mL centrifuge vials and centrifuged at 9000 g for 20 min at 4° C. The resulting supernatant (Caco-2 cell homogenate S9 fraction) was aliquoted into 0.5 mL vials and stored at −80° C. until used.
For stability studies, prodrug (5 μM) was incubated in Caco-2 homogenate S9 fraction (0.5 mg protein per mL) for 60 min at 37° C. Concentrations of intact prodrug and released drug were determined at zero time and 60 minutes using LC/MS/MS.
Concentrations of (2), (4), (7g) or Phe-Gabapentin in tissue extracts were determined by direct injection onto an API 2000 LC/MS/MS equipped with an Agilent 1100 binary pump and autosampler. Separation was achieved using a 3.5 μm Zorbax Ellipse XDB-C8 4.4×150 mm column heated to 45° C. during the analysis. The mobile phases were: 0.1% formic acid in water (A) and 0.1% formic acid in acetonitrile (B). The gradient condition was: 2% B for 0.5 min, increasing to 90% B in 2.0 min, maintained for 2.5 min and returning to 2% B for 2 min. […] Peaks were integrated using Analyst quantitation software. […]

For another data set, the target named is T3, Aminopeptidase 1 (Streptomyces griseus subsp. griseus, UniProt P80561).
T3 construct: purchased Sigma A-9934
Kind of data set: Aminopeptidase stability. It is filed as in vitro ADME. Conditions: substrate 5.0 μM, no cofactors, pH 8.0, 37° C. The procedure:
Aminopeptidase Stability: Aminopeptidase 1 (Sigma catalog # A-9934) was diluted in deionised water to a concentration of 856 units/mL. Stability studies were conducted by incubating prodrug (5 μM) with 0.856 units/mL aminopeptidase 1 in 50 mM Tris-HCl buffer at pH 8.0 and 37° C. Concentrations of intact prodrug and released drug were determined at zero time and 60 minutes using LC/MS/MS.
Concentrations of (2), (4), (7g) or Phe-Gabapentin in tissue extracts were determined by direct injection onto an API 2000 LC/MS/MS equipped with an Agilent 1100 binary pump and autosampler. Separation was achieved using a 3.5 μm Zorbax Ellipse XDB-C8 4.4×150 mm column heated to 45° C. during the analysis. The mobile phases were: 0.1% formic acid in water (A) and 0.1% formic acid in acetonitrile (B). The gradient condition was: 2% B for 0.5 min, increasing to 90% B in 2.0 min, maintained for 2.5 min and returning to 2% B for 2 min. A TurbolonSpray source was used on the API 2000. The analysis was performed in the positive ion mode and MRM transitions of 709.5/172.1 and 172.0/137.2 were used in the analysis of Cholyl-Phe-Gabapentin (7g) and gabapentin (2) respectively. Ten microliters of the sample extracts were injected. Peaks were integrated using Analyst quantitation software. The method was linear for (7g) or (2) over the concentration range 0.01 to 12.5 μg/mL and 0.002 to 2.5 μg/mL respectively.

A short description of data set [5]: In vitro enzymatic release in rat plasma. Conditions: substrate 2.0 μM, no cofactors, 37° C.
Data set [6] in a line: In vitro enzymatic release in rat liver S9. Conditions: Rat Liver S9 (0.5 mg/mL); substrate 2.0 μM; NADPH; 37° C.
A short description of data set [7]: In vitro enzymatic release in human liver S9. The note with it: Human Liver S9 (0.5 mg/mL); substrate 2.0 μM; NADPH; 37° C.
The nature of data set [8]: In vitro enzymatic release in human intestine S9. Conditions: Human Intestine S9 (0.5 mg/mL); substrate 2.0 μM; NADPH; 37° C.
Data set [9] in a line: In vitro enzymatic release in human plasma. The note with it: substrate 2.0 μM, no cofactors, 37° C.
The conditions of data set [10]: in rats; Salach et al, Pharm. Res. 1994; cited from earlier work.

Some results are limits rather than exact numbers.

T2 sequence (Q12908 whole entry): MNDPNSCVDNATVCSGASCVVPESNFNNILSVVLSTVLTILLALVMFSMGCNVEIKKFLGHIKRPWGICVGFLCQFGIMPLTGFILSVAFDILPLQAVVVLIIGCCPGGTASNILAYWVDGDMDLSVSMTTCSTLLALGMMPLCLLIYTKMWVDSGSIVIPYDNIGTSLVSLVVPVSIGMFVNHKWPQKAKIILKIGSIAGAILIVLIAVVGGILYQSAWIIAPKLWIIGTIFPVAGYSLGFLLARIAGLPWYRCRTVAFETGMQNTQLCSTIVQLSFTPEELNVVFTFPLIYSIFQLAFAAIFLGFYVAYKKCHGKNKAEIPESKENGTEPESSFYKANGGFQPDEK
T1 sequence (Q14973 whole entry): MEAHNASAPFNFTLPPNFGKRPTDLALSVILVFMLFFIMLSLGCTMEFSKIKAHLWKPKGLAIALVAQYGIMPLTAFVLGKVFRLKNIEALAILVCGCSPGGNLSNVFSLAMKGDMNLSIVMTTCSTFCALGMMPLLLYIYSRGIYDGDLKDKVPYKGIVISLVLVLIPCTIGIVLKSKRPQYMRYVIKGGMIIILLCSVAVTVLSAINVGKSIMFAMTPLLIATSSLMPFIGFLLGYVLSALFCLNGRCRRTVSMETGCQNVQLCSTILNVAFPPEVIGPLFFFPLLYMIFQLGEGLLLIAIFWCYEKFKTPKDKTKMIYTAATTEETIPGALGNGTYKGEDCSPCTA
T3 sequence (P80561 46-329): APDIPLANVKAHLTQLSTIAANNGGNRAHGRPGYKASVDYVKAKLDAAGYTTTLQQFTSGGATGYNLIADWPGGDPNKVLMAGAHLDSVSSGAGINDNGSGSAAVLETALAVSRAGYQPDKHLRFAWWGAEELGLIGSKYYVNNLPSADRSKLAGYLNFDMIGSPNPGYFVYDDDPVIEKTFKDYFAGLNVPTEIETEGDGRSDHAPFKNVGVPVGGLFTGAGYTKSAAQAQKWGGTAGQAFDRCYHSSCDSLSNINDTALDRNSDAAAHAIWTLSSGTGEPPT

Regarding `CC(CCC(=O)NC(Cc1ccc(O)cc1)C(=O)NCC1(CC(=O)O)CCCCC1)C1CCC2C3C(O)CC4CC(O)CCC4(C)C3CC(O)C12C` (centres unmarked) [(7h), Cholyl-Tyr-Gabapentin], in the data set with pancreatin, the “% (2) Released” value was 40%.

As to `C[C@H](CCC(=O)N[C@@H](Cc1ccc2oc(=O)oc2c1)C(=O)O)[C@H]1CC[C@H]2[C@@H]3[C@H](O)C[C@@H]4C[C@H](O)CC[C@]4(C)[C@H]3C[C@H](O)[C@]12C` [(23), Cholyl-Dopa-(3,4-carbonate)], the values for the half-maximal inhibitory concentration (IC50) on LBAT and on IBAT [2] were 1.8 µM and 74 µM, respectively. The “% Max. (GDC)” value at IBAT [1] worked out at 25%.

As to `N[C@@H](CCC(=O)O)C(=O)N[C@@H](CSC(=O)CN1C(=O)c2ccccc2C1=O)C(=O)NCC(=O)O` [Compound (61), H-Glu-Cys(N-phthaloylglycyl)-Gly-OH], the “time at which liberated N-phthaloylglycine is apparent in plasma” value in data set [3] is at most 30 min.

Consider `NC(Cc1ccccc1)C(=O)NCC1(CC(=O)O)CCCCC1` (centres unmarked) [Phe-Gabapentin], for which the “Percent of Gabapentin Released in 60 min” value in data set [4] is listed as 21%; at Aminopeptidase 1, 24%; in data set [5] it was 19%; in data set [6], 1%; in data set [7], 1%; in data set [8], 5%.

Turning to “Cholyl-Dopa-(4-pivaloyloxymethyl) [(21)]”, the IC50 (in general, the point on the concentration scale where inhibition reaches its midpoint) on LBAT stood at 0.2 µM; at IBAT [2] it was 91 µM. For the same compound, the “% Max. (GDC)” value at IBAT [1] was determined as 104%. In addition, the “Percent of (20) Released in 60 min” value worked out at 75% in [5]; 90% in data set [9]; 35% in data set [6]; 70% in [7]; 95% in data set [8].

For the compound N-Phthaloylglycine, the half-life (commonly the time needed for the level to fall by half in the phase considered) in data set [10] was about 10 min.

The record behind these values is patent US20050054559A1, “Compounds for sustained release of orally delivered drugs” (priority 2000, published 2005).
